Among the data in US6809214B2, “Shortened synthesis of 3,3-diarylpropylamine derivatives” (Schwartz Pharma AG, priority 2000, dated 2004) are melting point and solubility values, retold here.

Converted amounts (≈) assume the structure as drawn. Structures can show the parent of a compound that is named as a salt.

Series [1] can be described thus: Solubilities at ambient temperature. The class given is physicochemical.

`O=C1C[C@H](c2ccccc2)c2cc(C(=O)O)ccc2O1` (as salt: salt) [Example 3, (R)-4-Phenyl-2-chromanone-6-carboxylic acid]: the melting point amounted to 197.5 °C.
The compound `O=C1CC(c2ccccc2)c2cc(C(=O)O)ccc2O1` (racemic) [Example 1, (R,S)-4-Phenyl-2-chromanone-6-carboxylic acid] returned a melting point of 246 °C.
Still for that read-out and setting: to `O=C1C[C@H](c2ccccc2)c2cc(C(=O)O)ccc2O1` [Example 3, (R)-4-Phenyl-2-chromanone-6-carboxylic acid] belongs 224.9 °C; to `COC(=O)c1ccc(O)c([C@H](CCN(C(C)C)C(C)C)c2ccccc2)c1` [Example 8b, (R)-(−)-3-(3-Diisopropylamino-1-phenylpropyl)-4-hydroxybenzoic acid methyl ester], 143.7 °C; to `CC(C)OC(=O)c1ccc2c(c1)C(c1ccccc1)CC(=O)O2` (racemic) [Example 5c], 85.9 °C.
As to `CC(C)N(CC[C@H](c1ccccc1)c1cc(CO)ccc1O)C(C)C` [Example 13, (R)-2-(3-diisopropylamino-1-phenylpropyl)-4-hydroxymethylphenol], the solubility in series [1] (in water) is approximately 10000 µg/mL (≈ 29.3 mM); in series [1] (organic solvent or mixture, in 2-butanone) it was less than 200 µg/mL; in series [1] (organic solvent or mixture, in dichloromethane) it was less than 200 µg/mL; in series [1] (organic solvent or mixture, in ethyl acetate), less than 200 µg/mL; in series [1] (organic solvent or mixture, in methanol), more than 50000 µg/mL.
`CC(C)N(CC[C@H](c1ccccc1)c1cc(C(=O)O)ccc1O)C(C)C` [Example 9, (R)-(−)-3-(Diisopropylamino-1-phenylpropyl)-4-hydroxybenzoic acid] registered a melting point of 102.3 °C.
`COC(=O)c1ccc2c(c1)C(c1ccccc1)CC(=O)O2` (racemic) [Example 5a] registered a melting point of 97 to 99 °C.
